Holding throughout (assay): DTP human tumour cell line panel, 48 h
The test system of assay [1] is RXF 393.
Assay [2] relates to SNB-75.
Assay [3] has as its system DMS-114.
Assay [4] concerns SF-539.
Assay [5] deals with EKVX.
In assay [6] the test system is SK-MEL-28.
Assay [7] deals with A498.
The test system of assay [8] is HCT-15.
For assay [9], the system named is NCI-H460.
Assay [10] has as its system KM-20L2.
In assay [11] the test system is SF-268.
The subject of assay [12] is NCI-H226.
Assay [13] has as its system A549.
Assay [14] concerns DLD-1.

The results in this text go back to ChEMBL document CHEMBL1201862, “PubChem BioAssay data set” (2004).

Structures are written as SMILES.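 The compound was tested at five concentrations on cells cultured in 96-well plates, with a 48-hour exposure period. GI50 marks 50% less growth.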 Active and inactive are the calls of the source. Cut-off read from the data, not from the text of the source: active = GI50 up to about 1.1 µM and inactive = higher.

Broadly, the GI50 is the concentration that inhibits growth by half.

`N#CC1C(=O)C(=O)N(c2ccccc2)C1=O` (centres undefined): the GI50 in assay [1] is > 100 µM (inactive); in [2] it was 81.3 µM (inactive); in assay [3] it was > 100 µM (inactive); in [4] it was > 100 µM (inactive); in [5], > 100 µM (inactive); in assay [6], > 100 µM (inactive). Further, the GI50 is > 100 µM (inactive) in [7]; > 100 µM in assay [8]; > 100 µM (inactive) in [9]; > 100 µM (inactive) in assay [10]; > 100 µM (inactive) in assay [11]; > 100 µM (inactive) in assay [12].

Take `CCCCCC(/C=C/c1ncccc1OCCCCCC(=O)O)=N\NC1=NCCN1`: the GI50 was > 100 µM (inactive) in [1]; 40.2 µM (inactive) in [2]; 45.2 µM (inactive) in [3]; 76 µM (inactive) in assay [4]; > 100 µM (inactive) in [5]; > 100 µM (inactive) in [6]. Besides, the GI50 in [8] was > 100 µM; in assay [9], 51.9 µM (inactive); in [10], > 100 µM (inactive); in assay [11], > 100 µM (inactive); in assay [13], > 100 µM (inactive); in assay [12], > 100 µM (inactive).

On to `COc1ccc(C(=O)C(C(=O)C(=O)NC2C3CC4CC(C3)CC2C4)c2ccc(OC)cc2)cc1` (centres undefined), for which the GI50 was > 100 µM (inactive) in [14]; 16.6 µM (inactive) in assay [2]; > 100 µM (inactive) in assay [3]; > 100 µM (inactive) in [4]; > 100 µM (inactive) in assay [5]; > 100 µM (inactive) in assay [6]. The GI50 in assay [7] was > 100 µM (inactive); in assay [8] it was > 100 µM; in assay [9] it was > 100 µM (inactive); in assay [10], > 100 µM (inactive); in assay [11], > 100 µM (inactive); in [13], > 100 µM (inactive). The GI50 in assay [12] was > 100 µM (inactive).

As for `COc1ccc(N(CC(=O)O)S(=O)(=O)c2ccccc2)cc1`, the GI50 was > 100 µM (inactive) in assay [1]; > 100 µM (inactive) in [14]; > 100 µM (inactive) in assay [4]; > 100 µM (inactive) in assay [5]; > 100 µM (inactive) in assay [7]; > 100 µM in [8]. Besides, the GI50 in assay [9], in [10], in [13] and in [12] was > 100 µM (inactive) in each case.

For `CC12CC3CC(C1)CC(N=[N+]=[N-])(C3)C2`, the GI50 in assay [14], in assay [2], in [3], in [4], in assay [5] and in assay [6] was > 100 µM (inactive) in each case. The GI50 in [7], in [9], in assay [10], in [13] and in [12] was > 100 µM (inactive) throughout.

As for `CC1(C)N=C(N)N=C(N)N1c1ccc(CCc2ccccc2)cc1`, the GI50 in assay [1] was > 20.9 µM (inactive); in assay [14], 15.7 µM (inactive); in [2], 28.5 µM (inactive); in assay [3], 0.647 µM (active); in assay [4], 2.78 µM (inactive); in assay [5], 0.622 µM (active). In addition, the GI50 in [6] is 6.01 µM (inactive); in assay [8] it was 37.9 µM; in assay [9] it was 0.508 µM (active); in assay [10], 1.16 µM (inactive); in [11] it was 0.618 µM (active); in [13], 0.46 µM (active). For the same compound, in assay [12], the GI50 was 14.2 µM (inactive).

As to `Clc1ccccc1C(n1ncc2ccccc21)n1ncc2ccccc21`, the GI50 in [1] is 28.3 µM (inactive); in assay [14], 40.5 µM (inactive); in assay [2], 17 µM (inactive); in assay [3], 31.3 µM (inactive); in assay [4], 56.9 µM (inactive); in assay [6] it was 53.2 µM (inactive). Further, the GI50 is 35.6 µM (inactive) in assay [7]; 38.3 µM in assay [8]; 35.8 µM (inactive) in assay [9]; 99.3 µM (inactive) in [11]; 33.7 µM (inactive) in assay [12].

On to `COc1ccc(C(c2ccc(C(C)C)cc(=O)c2O)c2ccc3cccnc3c2O)cc1` (centres undefined), for which the GI50 in assay [14] is 0.45 µM (active); in [2], 0.155 µM (active); in assay [3], 0.173 µM (active); in assay [4], 0.357 µM (active); in [5] it was 1.27 µM (inactive); in assay [8] it was 0.449 µM. Also, the GI50 in assay [9] was 0.297 µM (active); in assay [11], 0.399 µM (active); in [13], 0.328 µM (active); in [12] it was 0.991 µM (active).

Consider `NC1C(O)C(O)C(CO)OC1n1cc(F)c(=O)[nH]c1=O` (centres undefined), for which the GI50 in assay [1] is > 100 µM (inactive); in assay [14], > 100 µM (inactive); in [2] it was 91.2 µM (inactive); in [3], > 100 µM (inactive); in assay [6], > 100 µM (inactive); in assay [8] it was > 100 µM. Besides, the GI50 in assay [9], in [11], in assay [13] and in [12] was > 100 µM (inactive) in each case.

On to `O=C(NCCCl)O/N=C/c1cccnc1`, for which the GI50 in [14] is > 100 µM (inactive); in [2] it was 61 µM (inactive); in [3], > 100 µM (inactive); in assay [4], > 100 µM (inactive); in assay [5], > 100 µM (inactive); in [6], > 100 µM (inactive). Also, the GI50 was > 100 µM (inactive) in [7]; > 100 µM in assay [8]; > 100 µM (inactive) in assay [9]; > 100 µM (inactive) in assay [11]; > 100 µM (inactive) in assay [13]; > 100 µM (inactive) in [12].

Regarding `Cc1cc(N(CCC#N)CCC#N)ccc1/C=C(\NC(=O)/C=C/c1ccccc1)C(=O)Nc1ccccc1Cl`, the GI50 in assay [1], in assay [14], in assay [3], in assay [4], in assay [5] and in [6] was > 100 µM (inactive) each time. Moreover, the GI50 in [7] was > 100 µM (inactive); in assay [8], > 100 µM; in [9] it was > 100 µM (inactive); in assay [10], > 100 µM (inactive); in [11] it was > 100 µM (inactive); in assay [13] it was > 100 µM (inactive). In addition, the GI50 in [12] is > 100 µM (inactive).

On to `COC(=O)C1=C(C)N2CCOC2CC1c1ccccc1` (centres undefined), for which the GI50 in assay [1] was 48.6 µM (inactive); in assay [14], 78.3 µM (inactive); in assay [2], > 100 µM (inactive); in assay [3], > 100 µM (inactive); in [4], > 100 µM (inactive); in assay [5], > 100 µM (inactive). Besides, the GI50 in assay [6] is 99.1 µM (inactive); in [9], > 100 µM (inactive); in assay [10], > 100 µM (inactive); in [11] it was > 100 µM (inactive); in [13], > 100 µM (inactive); in assay [12], > 100 µM (inactive).

`O=C1C(=C2CCCC2)CCC1CN1CCCCC1` (centres undefined): the GI50 is 16.4 µM (inactive) in [1]; 0.489 µM (active) in assay [2]; 17.5 µM (inactive) in [3]; 21 µM (inactive) in assay [4]; 18.8 µM (inactive) in assay [5]; 17.5 µM (inactive) in assay [6]. Further, the GI50 was 19.4 µM (inactive) in [7]; 16.3 µM in assay [8]; > 10 µM (inactive) in [9]; 17.5 µM (inactive) in assay [10]; 19.5 µM (inactive) in assay [11]; > 100 µM (inactive) in [13].

For `O=C(CCc1ccccc1)CC1OC(=O)C(Cl)=C1Cl` (centres undefined), the GI50 is 29.5 µM (inactive) in assay [1]; 18 µM (inactive) in assay [14]; 53.6 µM (inactive) in assay [2]; 31 µM (inactive) in [4]; 38.9 µM (inactive) in [5]; 16.9 µM (inactive) in [6]. For the same compound, the GI50 in assay [7] was 34 µM (inactive); in assay [8] it was 16 µM; in [9], 33.5 µM (inactive); in assay [10] it was 13.2 µM (inactive); in [11], 27.5 µM (inactive); in assay [13], 43.4 µM (inactive).

Consider `COC(=O)c1sc(=O)n(-c2ccccc2)c1SCc1ccccc1`, for which the GI50 in assay [1], in assay [14], in assay [2], in [4], in [5] and in assay [6] was > 100 µM (inactive) each time. In addition, the GI50 in assay [8] is > 100 µM; in assay [9] it was > 100 µM (inactive); in assay [10], > 100 µM (inactive); in assay [13], > 100 µM (inactive); in [12] it was > 100 µM (inactive).

With `CN1C2CCC1/C(=C/c1cccc3c1OCO3)C(=O)/C2=C\c1cccc2c1OCO2`, the GI50 in assay [1] was 11.3 µM (inactive); in [14] it was > 100 µM (inactive); in assay [2] it was 11.1 µM (inactive); in assay [3] it was > 100 µM (inactive); in assay [5], > 100 µM (inactive); in [6] it was > 100 µM (inactive). Also, the 50% growth inhibitory concentration (GI50) in assay [8] is > 100 µM; in assay [9] it was > 100 µM (inactive); in [10], > 100 µM (inactive); in assay [11] it was 47.6 µM (inactive); in [12] it was > 100 µM (inactive).

On to `C=CC1(C)CCC2=C(CCC3C(C)(C(=O)OC)CCCC23C)C1=O` (centres undefined), for which the GI50 is 18.5 µM (inactive) in [14]; 15.3 µM (inactive) in assay [3]; 18.7 µM (inactive) in [5]; 14.8 µM (inactive) in assay [7]; 20.6 µM in assay [8]; 18.3 µM (inactive) in assay [9]. Besides, the GI50 in assay [10] was 21.3 µM (inactive); in assay [11], 18.7 µM (inactive); in [12], 23.8 µM (inactive).
